Laboratory results published in PubChem BioAssay AID1845197 (Molecular Pharmacology Branch, DTP, NCI, 2023).
pIC50: −log10 of the molar value.

Tested on: 349418-098-R tumor spheroid viability
Assay: Anticancer human tumor 349418-098-R patient-derived lung adenocarcinoma cell line growth inhibition
Conditions: spheroids with HUVEC and MSC; for pIC50: curve of first compound; for viability, T/C: stronger effect = lower value
From the text: Multicellular complex tumor spheroid response to DNA repair inhibitors in combination with DNA-damaging drugs
This study explores the anticancer activities of DNA-damaging drugs and inhibitors of DNA damage repair, both as single agents and in combinations. Complex tumor spheroids comprised of malignant cells, endothelial cells and mesenchymal stem cells served as an in vitro model for human solid tumors. This model system incorporates physiologically relevant features and patient-derived or established malignant cell lines with clinically relevant genetic alterations from many tumor types. Twenty-six patient-derived or established malignant cell lines were evaluated representing sarcoma, melanoma, small cell lung cancer (SCLC), non-small cell lung cancer (NSCLC), as well as bladder, ovarian and pancreatic cancers. The concentration ranges selected for each drug and investigational agent were based upon clinically achievable concentrations if the clinical Cmax of the agent was known.
Compounds. The drugs and compounds olaparib (NSC753686), talazoparib (NSC767125), berzosertib (NSC777718), elimusertib (NSC800525), nedisertib (NSC802822), VX-984 (NSC792969), AZD-1390 (NSC803789), temozolomide (NSC362856), topotecan (NSC609699), trabectedin (NSC813783), staurosporine (NSC755774), and gemcitabine (NSC613327) were obtained from the National Cancer Institute (NCI) Developmental Therapeutics Program Chemical Repository. The FDA-approved anticancer drug set is available from the Developmental Therapeutics Program at https://dtp.cancer.gov/organization/dscb/obtaining/available_plates.htm. […] The stock solutions were prepared in dimethyl sulfoxide (DMSO, Sigma-Aldrich, St. Louis, MO, cat. D2650) at 400-fold the tested concentration and stored at -70 degrees C. Prior to their use, the stock solutions were diluted in fresh medium and the final DMSO concentration in the assay was 0.25% (v/v). All drugs and investigational agents were tested over a range starting from a high concentration at or near the clinical Cmax and decreasing in half-log increments. If the clinical Cmax for an agent had not been determined, the highest concentration tested was 10 microM.
Cell Lines. The patient-derived cancer cell (PDC) lines: 156681-154-R-J1-PDC, 283228-195-R-J1-PDC, 287954-098-R-J1-PDC, 292921-168-R-J2-PDC, 349418-098-R-PDC, 425362-245-T-J1-PDC, 556581-035-R-J1-PDC, and BL0293-F563-PDC were received from the NCI Patient-Derived Models Repository (PDMR, https://pdmr.cancer.gov). The established cell lines HS-SY-2 (RRID:CVCL_8719), MPNST, and SYO-1 (RRID:CVCL_7146) were obtained from the Sloan Kettering Institute. The alveolar soft parts sarcoma cell line ASPS-1 (RRID:CVCL_S738) was established at the NCI and grown from internal seed stocks. The following established cell lines were purchased from the American Type Culture Collection (ATCC, Manassas, VA): G-401 (ATCC, cat. CRL-1441, RRID:CVCL_0270), SW982 (ATCC, cat. HTB-93, RRID:CVCL_1734), VA-ES-BJ (ATCC, cat. CRL-2138, RRID:CVCL_1785), NCI-H719 (ATCC, cat. CRL-5837, RRID:CVCL_1582), NCI-H196 (ATCC, cat. CRL-5823, RRID:CVCL_1509), NCI-H841 (ATCC, cat. CRL-5845, RRID:CVCL_1595), NCI-H1618 (ATCC, cat. CRL-5879, RRID:CVCL_1480), NCI-H1876 (ATCC, cat. CRL-5902, RRID:CVCL_1503), DMS 114 (ATCC, cat. CRL-2066; RRID:CVCL_1174), NCI-H211 (ATCC, cat. CRL-5824; RRID:CVCL_1529), and SW 1271 (ATCC, cat. CRL-2177, RRID:CVCL_1716). The small cell lung cancer cell line COR-L88 was purchased from Sigma-Aldrich (cat. 92031917-1VL, RRID:CVCL_1141). The non-small cell lung cancer cell lines NCI-H226 (RRID:CVCL_1544) and NCI-H322M (RRID:CVCL_1557) were established at the NCI and grown from internal seed stocks. Pooled donor human umbilical vein endothelial cells (HUVEC, Lonza, cat. CC-2519) and human mesenchymal stem cells (hMSC, Lonza, cat. PT-2501) were purchased from Lonza (Walkersville, MD).
Cell Culture. All cells were maintained in an incubator at 37 degrees C and 5% CO2 with 95% humidity. […]
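Note: spheroids exposed to compound for 7 days before measurement.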
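Throughout, for viability, T/C: percent of vehicle control viability with 100% = DMSO-treated spheroids.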

`Cn1ncnc1[C@H]1c2n[nH]c(=O)c3cc(F)cc(c23)N[C@@H]1c1ccc(F)cc1` + CC[C@@]1(O)C(=O)OCc2c1cc1n(c2=O)Cc2cc3c(CN(C)C)c(O)ccc3nc2-1 was tested, and the pIC50 (second compound 0.003 µM) was 5.79, the pIC50 (second compound 0.00949 µM) was 5.96 and the pIC50 (second compound 0.03 µM) was 7.27. It also gave a pIC50 (second compound 0.0949 µM) of over 8.02, a pIC50 (second compound 0.3 µM) of over 8.02 and a viability, T/C (second compound 0.003 µM, first compound 0.00949 µM) of 93.6%. It also gave a viability, T/C (second compound 0.003 µM, first compound 0.03 µM) of 97.7%, a viability, T/C (second compound 0.003 µM, first compound 0.0949 µM) of 91.4% and a viability, T/C (second compound 0.003 µM, first compound 0.3 µM) of 96.6%. For the same compound, the viability, T/C (second compound 0.003 µM, first compound 0.949 µM) was 83.3%, the viability, T/C (second compound 0.003 µM, first compound 3 µM) was 11.1% and the viability, T/C (second compound 0.00949 µM, first compound 0.00949 µM) was 100%. The viability, T/C (second compound 0.00949 µM, first compound 0.03 µM) was 97.6%, the viability, T/C (second compound 0.00949 µM, first compound 0.0949 µM) was 90.8% and the viability, T/C (second compound 0.00949 µM, first compound 0.3 µM) was 92.6%. The viability, T/C (second compound 0.00949 µM, first compound 0.949 µM) was 56.1%, the viability, T/C (second compound 0.00949 µM, first compound 3 µM) was 7.96% and the viability, T/C (second compound 0.03 µM, first compound 0.00949 µM) was 63.4%. For the same compound, the viability, T/C (second compound 0.03 µM, first compound 0.03 µM) was 59.5%, the viability, T/C (second compound 0.03 µM, first compound 0.0949 µM) was 41.3% and the viability, T/C (second compound 0.03 µM, first compound 0.3 µM) was 31.1%. It also gave a viability, T/C (second compound 0.03 µM, first compound 0.949 µM) of 18.3%, a viability, T/C (second compound 0.03 µM, first compound 3 µM) of 2.95% and a viability, T/C (second compound 0.0949 µM, first compound 0.00949 µM) of 13.1%. For the same compound, the viability, T/C (second compound 0.0949 µM, first compound 0.03 µM) was 9.39%, the viability, T/C (second compound 0.0949 µM, first compound 0.0949 µM) was 12.7% and the viability, T/C (second compound 0.0949 µM, first compound 0.3 µM) was 8.01%. It also gave a viability, T/C (second compound 0.0949 µM, first compound 0.949 µM) of 5.35%, a viability, T/C (second compound 0.0949 µM, first compound 3 µM) of 1.86% and a viability, T/C (second compound 0.3 µM, first compound 0.00949 µM) of 3.53%. The viability, T/C (second compound 0.3 µM, first compound 0.03 µM) was 3.12%, the viability, T/C (second compound 0.3 µM, first compound 0.0949 µM) was 3.64% and the viability, T/C (second compound 0.3 µM, first compound 0.3 µM) was 3.26%. It also gave a viability, T/C (second compound 0.3 µM, first compound 0.949 µM) of 2.39% and a viability, T/C (second compound 0.3 µM, first compound 3 µM) of 1.17%.
